From article PMC11995724, “Antibiotic target discovery by integrated phenotypic and activity-based profiling of electrophilic fragments” (Cell chemical biology, 2025)
Structures can show the parent of a compound that is named as a salt.

Test: in vitro
Conditions: human, hek293t cells

| Compound | viability at 48 h, 25 µM [%] |
| --- | --- |
| CCc1ccc(NC(=O)CCl)cc1 [4-P03, 2-chloro-N-(4-ethylphenyl)acetamide] | 0.338 |
| NC(=O)c1ccc(NC(=O)CCl)cc1 [4-P04, 4-(2-chloroacetamido)benzamide] | 0.712 |
| CCc1ccccc1NC(=O)CN(C)C(=O)C(C)Cl (centres unmarked) [4-P05, 2-chloro-N-{[(2-ethylphenyl)carbamoyl]methyl}-N-methylpropanamide] | 81 |
| O=C(CCl)Nc1ncc(Cc2ccccc2Cl)s1 [4-P07, 2-chloro-N-{5-[(2-chlorophenyl)methyl]-1,3-thiazol-2-yl}acetamide] | -0.245 |
| O=C(CCl)Nc1cccc(S(=O)(=O)N2CCOCC2)c1 [4-P08, 2-chloro-N-[3-(morpholine-4-sulfonyl)phenyl]acetamide] | 0.715 |
| CCN(CC)S(=O)(=O)c1cc(NC(=O)C(C)Cl)ccc1C (centres unmarked) [4-P09, 2-chloro-N-[3-(diethylsulfamoyl)-4-methylphenyl]propanamide] | 69.6 |
| CCN(C(=O)CCl)c1c(N)n(Cc2ccccc2)c(=O)[nH]c1=O [4-P10, N-(6-amino-1-benzyl-2,4-dioxo-1,2,3,4-tetrahydropyrimidin-5-yl)-2-chloro-N-ethylacetamide] | 65.4 |
| CC(Cl)C(=O)NCc1cccs1 (centres unmarked) [4-P11, 2-chloro-N-[(thiophen-2-yl)methyl]propanamide] | 68.4 |
| NS(=O)(=O)c1ccc(CNC(=O)CCl)cc1 [4-P12, 2-chloro-N-[(4-sulfamoylphenyl)methyl]acetamide] | 0.879 |
| O=C(CCl)NSc1ccc([N+](=O)[O-])cc1 [4-P13, 2-chloro-N-[(4-nitrophenyl)sulfanyl]acetamide] | 3.88 |
| O=C(CCl)Nc1ccc(Cl)c(S(=O)(=O)N2CCCCC2)c1 [4-P14, 2-chloro-N-[4-chloro-3-(piperidine-1-sulfonyl)phenyl]acetamide] | -0.167 |
| CCOc1ccc(S(=O)(=O)N2CCN(C(=O)CCl)CC2)cc1 [4-P15, 2-chloro-1-[4-(4-ethoxybenzenesulfonyl)piperazin-1-yl]ethan-1-one] | 0.587 |
| CCN(C(=O)C(C)Cl)c1ccccc1 (centres unmarked) [4-P16, 2-chloro-N-ethyl-N-phenylpropanamide] | 109 |
| COc1ccc([N+](=O)[O-])cc1NC(=O)CCl [4-P17, 2-chloro-N-(2-methoxy-5-nitrophenyl)acetamide] | 0.714 |
| COc1ccc(CN2CCN(C(=O)CCl)CC2)cc1F [4-P18, 2-chloro-1-{4-[(3-fluoro-4-methoxyphenyl)methyl]piperazin-1-yl}ethan-1-one hydrochloride] | 0.482 |
| O=C(CCl)Nc1cccc(Oc2ccccc2)c1 [4-P19, 2-chloro-N-(3-phenoxyphenyl)acetamide] | 0.14 |
| Cn1cc(S(=O)(=O)N2CCOCC2)cc1C(=O)NC(=O)CCl [4-P20, N-(2-chloroacetyl)-1-methyl-4-(morpholine-4-sulfonyl)-1H-pyrrole-2-carboxamide] | 106 |
| CCS(=O)(=O)c1ccc(NC(=O)CCl)c(O)c1 [4-P21, 2-chloro-N-[4-(ethanesulfonyl)-2-hydroxyphenyl]acetamide] | 73.2 |
| COc1ccc(C2CCCN2C(=O)CCl)c(OC)c1 (centres unmarked) [4-P22, 2-chloro-1-[2-(2,4-dimethoxyphenyl)pyrrolidin-1-yl]ethan-1-one] | 0.348 |

| Compound | viability at 48 h, 25 µM [%] |
| --- | --- |
| COc1cccc(NC(=O)CN(C)C(=O)CCl)c1 [5-A03, 2-chloro-N-{[(3-methoxyphenyl)carbamoyl]methyl}-N-methylacetamide] | 0.139 |
| Cc1nc2n(n1)CCN(C(=O)C(C)Cl)C2 (centres unmarked) [5-A04, 2-chloro-1-{2-methyl-5H,6H,7H,8H-[1,2,4]triazolo[1,5-a]pyrazin-7-yl}propan-1-one] | 107 |
| CCC(C)(C)C1CCc2c(sc(NC(=O)CCl)c2C#N)C1 (centres unmarked) [5-A05, 2-chloro-N-[3-cyano-6-(2-methylbutan-2-yl)-4,5,6,7-tetrahydro-1-benzothiophen-2-yl]acetamide] | -0.0335 |
| CN(CCC1CCCCC1)C(=O)CCl [5-A06, 2-chloro-N-(2-cyclohexylethyl)-N-methylacetamide] | 0.304 |
| CC(Cl)C(=O)Nc1cccc(S(=O)(=O)N(C)C)c1 (centres unmarked) [5-A07, 2-chloro-N-[3-(dimethylsulfamoyl)phenyl]propanamide] | 55.5 |
| O=C(CCl)N1CCN(C(=O)CC(F)(F)F)CC1 [5-A08, 1-[4-(2-chloroacetyl)piperazin-1-yl]-3,3,3-trifluoropropan-1-one] | 0.522 |
| O=C(CCl)NCC1CC(=O)N(c2ccccc2)C1 (centres unmarked) [5-A09, 2-chloro-N-[(5-oxo-1-phenylpyrrolidin-3-yl)methyl]acetamide] | 0.822 |
| CCn1nc(C)c(CN(C)C(=O)CCl)c1C [5-A10, 2-chloro-N-[(1-ethyl-3,5-dimethyl-1H-pyrazol-4-yl)methyl]-N-methylacetamide] | 1.55 |
| O=C(CCl)NC1CCC(O)(c2cccc(F)c2)CC1 (centres unmarked) [5-A11, 2-chloro-N-[4-(3-fluorophenyl)-4-hydroxycyclohexyl]acetamide] | 0.51 |
| CC(C)CN(C(=O)CCl)c1cnn(-c2ccccn2)c1 [5-A12, 2-chloro-N-(2-methylpropyl)-N-[1-(pyridin-2-yl)-1H-pyrazol-4-yl]acetamide] | 0.323 |
| Cc1cccc(C)c1NC(=O)CN(C)C(=O)CCl [5-A13, 2-chloro-N-{[(2,6-dimethylphenyl)carbamoyl]methyl}-N-methylacetamide] | 0.212 |
| Cc1nn(C)c(C)c1CN(C(=O)CCl)C1CCCCC1C (centres unmarked) [5-A14, 2-chloro-N-(2-methylcyclohexyl)-N-[(1,3,5-trimethyl-1H-pyrazol-4-yl)methyl]acetamide] | 0.467 |
| COc1ccc(CN2CCN(C(=O)CCl)CC2)cc1 [5-A15, 2-chloro-1-{4-[(4-methoxyphenyl)methyl]piperazin-1-yl}ethan-1-one hydrochloride] | -0.117 |
| Cn1nnc(CN(C(=O)CCl)C2CCCCCCC2)n1 [5-A16, 2-chloro-N-cyclooctyl-N-[(2-methyl-2H-1,2,3,4-tetrazol-5-yl)methyl]acetamide] | 0.784 |
| CC(NC(=O)CCl)c1ccc(-c2ccccc2)cc1 (centres unmarked) [5-A17, N-(1-{[1,1'-biphenyl]-4-yl}ethyl)-2-chloroacetamide] | 123 |
| CN(C(=O)CCl)C1CCN(c2ccccc2F)C1=O (centres unmarked) [5-A18, 2-chloro-N-[1-(2-fluorophenyl)-2-oxopyrrolidin-3-yl]-N-methylacetamide] | 0.916 |
| CC(Cl)C(=O)NCc1ccc(F)cc1 (centres unmarked) [5-A19, 2-chloro-N-[(4-fluorophenyl)methyl]propanamide] | 76.2 |
| O=C(CCl)N1CCn2c(cc3ccccc32)C1 [5-A20, 2-chloro-1-{1H,2H,3H,4H-pyrazino[1,2-a]indol-2-yl}ethan-1-one] | 0.499 |
| CC(Cl)C(=O)NC(c1ccccc1)c1ccccc1 (centres unmarked) [5-A21, 2-chloro-N-(diphenylmethyl)propanamide] | 85.8 |

| Compound | viability at 48 h, 25 µM [%] |
| --- | --- |
| Cn1cc(NC(=O)CCl)c(C(=O)NC2CCC2)n1 [5-A22, 4-(2-chloroacetamido)-N-cyclobutyl-1-methyl-1H-pyrazole-3-carboxamide] | 2.84 |
| C[C@H]1CN(C(=O)CCl)Cc2cccn21 [5-B03, 2-chloro-1-[(4S)-4-methyl-1H,2H,3H,4H-pyrrolo[1,2-a]pyrazin-2-yl]ethan-1-one] | 0.688 |
| O=C(CCl)Nc1c(Cl)cccc1C(F)(F)F [5-B04, 2-chloro-N-[2-chloro-6-(trifluoromethyl)phenyl]acetamide] | 1.62 |
| C=CCN(Cc1cccs1)C(=O)CCl [5-B06, 2-chloro-N-(prop-2-en-1-yl)-N-[(thiophen-2-yl)methyl]acetamide] | 0.0461 |
| COCc1nc(C2CCCCCN2C(=O)CCl)no1 (centres unmarked) [5-B07, 2-chloro-1-{2-[5-(methoxymethyl)-1,2,4-oxadiazol-3-yl]azepan-1-yl}ethan-1-one] | 1.24 |
| CCN(C(=O)CCl)c1cccc2ccccc12 [5-B08, 2-chloro-N-ethyl-N-(naphthalen-1-yl)acetamide] | 0.156 |
| CC(Cl)C(=O)NCc1ccco1 (centres unmarked) [5-B09, 2-chloro-N-[(furan-2-yl)methyl]propanamide] | 96.6 |
| CC(Cl)C(=O)Nc1cccc(C#N)c1 (centres unmarked) [5-B10, 2-chloro-N-(3-cyanophenyl)propanamide] | 77.3 |
| CCc1nocc1CN(C)C(=O)CCl [5-B11, 2-chloro-N-[(3-ethyl-1,2-oxazol-4-yl)methyl]-N-methylacetamide] | 1.49 |
| COC(=O)c1ccccc1NC(=O)CCl [5-B12, methyl 2-(2-chloroacetamido)benzoate] | 77.7 |
| Cc1cc(Cl)ccc1CN1CCN(C(=O)C(C)Cl)CC1 (centres unmarked) [5-B13, 2-chloro-1-{4-[(4-chloro-2-methylphenyl)methyl]piperazin-1-yl}propan-1-one] | 94.8 |
| O=C(CCl)Nc1ccccn1 [5-B14, 2-chloro-N-(pyridin-2-yl)acetamide hydrochloride] | 73.1 |
| O=C(CCl)N(Cc1ccoc1)C1CCCCC1 [5-B15, 2-chloro-N-cyclohexyl-N-[(furan-3-yl)methyl]acetamide] | 0.638 |
| O=C(CCl)Nc1c(Cl)cc(Cl)cc1Cl [5-B16, 2-chloro-N-(2,4,6-trichlorophenyl)acetamide] | 123 |
| CC(Cl)C(=O)N(Cc1nnc(-c2ccccc2Cl)o1)C1CC1 (centres unmarked) [5-B17, 2-chloro-N-{[5-(2-chlorophenyl)-1,3,4-oxadiazol-2-yl]methyl}-N-cyclopropylpropanamide] | 134 |
| CC(Cl)C(=O)Nc1cccc(CSc2ccccn2)c1 (centres unmarked) [5-B18, 2-chloro-N-{3-[(pyridin-2-ylsulfanyl)methyl]phenyl}propanamide] | 119 |
| CC(Cl)C(=O)NC1CC(C)N(c2ccccc2)C1=O (centres unmarked) [5-B19, 2-chloro-N-(5-methyl-2-oxo-1-phenylpyrrolidin-3-yl)propanamide] | 112 |
| CC(Cl)C(=O)Nc1sc2c(c1C#N)CCCCC2 (centres unmarked) [5-B20, 2-chloro-N-{3-cyano-4H,5H,6H,7H,8H-cyclohepta[b]thiophen-2-yl}propanamide] | 60 |
